# Assay results from US11913075B2, “Methods and compositions for detecting and modulating an immunotherapy resistance gene signature in cancer” (The Broad Institute, Inc., priority 2017, dated 2024).
# What was measured:
# [1] = test system: IGR37 melanoma cell line (RB-sufficient); assay: scRNA-seq of IGR37 melanoma cell line before and after abemaciclib for 1 week; format: cell-based; settings: IGR37, post-treatment with abemaciclib; 10% before treatment
# Protocol: (§1) Applicants performed scRNA-seq on these cell lines before and after treatment with abemaciclib for 1 week (FIG. 41).
# (§2) To test this hypothesis, Applicants studied the effect of abemaciclib on the immune resistance program in melanoma cell lines. […] Applicants profiled each cell line with scRNA-seq before and after treatment with abemaciclib for 1 week (FIGS. 49D-E), analyzing over 23,000 cells in these and follow-up conditions (below).
# (§3) For droplet-based scRNA-seq, experiments were performed on the 10× Genomics Chromium platform, with the Chromium Single Cell 3′ Library & Gel Bead Kit v2 and Chromium Single Cell 3′ Chip kit v2 according to the manufacturer's instructions in the Chromium Single Cell 3′ Reagents Kits V2 User Guide. Briefly, 6,000 cells were re suspended in PBS supplemented with 0.04% BSA and loaded to each channel. The cells were then partitioned into Gel Beads in Emulsion in the GemCode instrument, where cell lysis and barcoded reverse transcription of RNA occurred, followed by amplification, shearing and 5′ adaptor and sample index attachment.
# [2] = test system: UACC257 melanoma cell line (RB-sufficient); assay: scRNA-seq of UACC257 melanoma cell line before and after abemaciclib for 1 week; format: cell-based; settings: UACC257, post treatment with abemaciclib; 10% prior to treatment
# Protocol: as §1, §2, §3
smiles,measurement,setting,value
CCN1CCN(Cc2ccc(Nc3ncc(F)c(-c4cc(F)c5nc(C)n(C(C)C)c5c4)n3)nc2)CC1 [abemaciclib],"cells with exceptionally strong expression of the uICR signature / immune resistance program (""immune resistant"" cells)",[1],2%
same,"cells with exceptionally strong expression of the immune resistance program (""immune resistant"" cells)",[2],1%
